Reference: publication PMC11513893, “Discovery of Oral Degraders of the ROS1 Fusion Protein with Potent Activity against Secondary Resistance Mutations” (Journal of Medicinal Chemistry, 2024)

Key:
[1] = system: Ba/F3 CD74-ROS1 non mutant; assay: Antiproliferation assay (Alamar Blue, 72 h); assay type: cell-based, mouse; details: Mus musculus, BaF3, 72 h, Ba/F3 cells, cell growth inhibition
Ba/F3 ROS1-G2032R = assay: Antiproliferation assay; assay type: cell-based, mouse; details: Mus musculus, BaF3; Ba/F3 cells, cell growth inhibition, 72 h
ROS1 = ROS1 degradation in Ba/F3 cells (WES immunoblotting); assay type: cell-based; details: for DC50: concentration needed to reduce ROS1 protein by 50%, Ba/F3 cells; for Dmax (%) (ROS1): maximal degradation of ROS1 in Ba/F3 cells
Procedure, shortened: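 ROS1 and phospho-ROS1 (Tyr2274/2334) in Ba/F3 lysates quantified by capillary immunoassay (WES) with chemiluminescent detection, duplicate experiments. Levels expressed as AUC of the chemiluminescence peak.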

SMILES: COc1cc(N2CCC(N3CCN(CC4CN(c5ccc6c(c5)CN(C5CCC(=O)NC5=O)C6=O)C4)CC3)CC2)ccc1Nc1ncc(Cl)c(Nc2ccccc2P(C)(C)=O)n1 (stereo not shown) [9p, 3-(5-(3-((4-(1-(4-((5-Chloro-4-((2-(dimethylphosphoryl)phenyl)amino)pyrimidin-2-yl)amino)-3-methoxyphenyl)piperidin-4-yl)piperazin-1-yl)methyl)azetidin-1-yl)-1-oxoisoindolin-2-yl)piperidine-2,6-dione]
- IC50 [1]: 15.3 ± 4.5 nM
- IC50 (Ba/F3 ROS1-G2032R): 158 ± 81 nM
- DC50 (ROS1): 20 nM
- Dmax (%) (ROS1) (ROS1): 94%

SMILES: COc1cc(N2CCC(N3CCN(CC4CCN(c5ccc(NC6CCC(=O)NC6=O)cc5)CC4)CC3)CC2)ccc1Nc1ncc(Cl)c(Nc2ccccc2P(C)(C)=O)n1 (stereo not shown) [9q, 3-((4-(4-((4-(1-(4-((5-Chloro-4-((2-(dimethylphosphoryl)phenyl)amino)pyrimidin-2-yl)amino)-3-methoxyphenyl)piperidin-4-yl)piperazin-1-yl)methyl)piperidin-1-yl)phenyl)amino)piperidine-2,6-dione]
- IC50 [1]: 102 ± 24 nM
- IC50 (Ba/F3 ROS1-G2032R): > 10000 nM
- DC50 (ROS1): 145 nM
- Dmax (%) (ROS1) (ROS1): 33%

SMILES: COc1cc(N2CCC(N3CCN(CC4CCN(c5ccc(C(=O)NC6CCC(=O)NC6=O)cc5)CC4)CC3)CC2)ccc1Nc1ncc(Cl)c(Nc2ccccc2P(C)(C)=O)n1 (stereo not shown) [9r, 4-(4-((4-(1-(4-((5-Chloro-4-((2-(dimethylphosphoryl)phenyl)amino)pyrimidin-2-yl)amino)-3-methoxyphenyl)piperidin-4-yl)piperazin-1-yl)methyl)piperidin-1-yl)-N-(2,6-dioxopiperidin-3-yl)benzamide]
- IC50 [1]: 120 ± 39 nM
- IC50 (Ba/F3 ROS1-G2032R): > 10000 nM
- DC50 (ROS1): 123 nM
- Dmax (%) (ROS1) (ROS1): 28%

SMILES: COc1cc(N2CCC(N3CCN(C(=O)CN4CCN(c5ccc(NC6CCC(=O)NC6=O)cc5)CC4)CC3)CC2)ccc1Nc1ncc(Cl)c(Nc2ccccc2P(C)(C)=O)n1 (stereo not shown) [9s, 3-((4-(4-(2-(4-(1-(4-((5-Chloro-4-((2-(dimethylphosphoryl)phenyl)amino)pyrimidin-2-yl)amino)-3-methoxyphenyl)piperidin-4-yl)piperazin-1-yl)-2-oxoethyl)piperazin-1-yl)phenyl)amino)piperidine-2,6-dione]
- IC50 [1]: 75 ± 9 nM
- IC50 (Ba/F3 ROS1-G2032R): > 10000 nM
- DC50 (ROS1): 84 nM
- Dmax (%) (ROS1) (ROS1): 40%

SMILES: COc1cc(N2CCC(N3CCN(CCC4CCN(c5ccc(NC6CCC(=O)NC6=O)cc5)CC4)CC3)CC2)ccc1Nc1ncc(Cl)c(Nc2ccccc2P(C)(C)=O)n1 (stereo not shown) [9t, 3-((4-(4-(2-(4-(1-(4-((5-Chloro-4-((2-(dimethylphosphoryl)phenyl)amino)pyrimidin-2-yl)amino)-3-methoxyphenyl)piperidin-4-yl)piperazin-1-yl)ethyl)piperidin-1-yl)phenyl)amino)piperidine-2,6-dione]
- IC50 [1]: 61 ± 3 nM
- IC50 (Ba/F3 ROS1-G2032R): > 10000 nM
- DC50 (ROS1): 56 nM
- Dmax (%) (ROS1) (ROS1): 45%

SMILES: COc1cc(N2CCC(N3CCN(C(=O)CC4CCN(c5ccc(NC6CCC(=O)NC6=O)cc5)CC4)CC3)CC2)ccc1Nc1ncc(Cl)c(Nc2ccccc2P(C)(C)=O)n1 (stereo not shown) [9u, 3-((4-(4-(2-(4-(1-(4-((5-Chloro-4-((2-(dimethylphosphoryl)phenyl)amino)pyrimidin-2-yl)amino)-3-methoxyphenyl)piperidin-4-yl)piperazin-1-yl)-2-oxoethyl)piperidin-1-yl)phenyl)amino)piperidine-2,6-dione]
- IC50 [1]: 82 ± 9 nM
- IC50 (Ba/F3 ROS1-G2032R): > 10000 nM
- DC50 (ROS1): 101 nM
- Dmax (%) (ROS1) (ROS1): 37%

SMILES: COc1cc(N2CCC(N3CCN(C(=O)C4CCN(c5ccc(NC6CCC(=O)NC6=O)cc5)CC4)CC3)CC2)ccc1Nc1ncc(Cl)c(Nc2ccccc2P(C)(C)=O)n1 (stereo not shown) [9v, 3-((4-(4-(4-(1-(4-((5-Chloro-4-((2-(dimethylphosphoryl)phenyl)amino)pyrimidin-2-yl)amino)-3-methoxyphenyl)piperidin-4-yl)piperazine-1-carbonyl)piperidin-1-yl)phenyl)amino)piperidine-2,6-dione]
- IC50 [1]: 63 ± 24 nM
- IC50 (Ba/F3 ROS1-G2032R): > 10000 nM
- DC50 (ROS1): 76 nM
- Dmax (%) (ROS1) (ROS1): 42%
